Values joined by “and” are separate entries in the source; they are usually repeats but may differ in a detail not shown here. Equal entries are not always repeated.
Legend:
Conditions in all cases: treatment: drug alone; 5 days
TK-10 [1] = assay: minimum viability across doses, drug alone, relative to DMSO (fraction); higher = less growth inhibition
Procedure: (§1)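 Primary HTS: 8 RCC cell lines treated with 8 doses (up to 10 uM) of each library drug alone for 5 days; viability read by CellTiter-Glo and normalised to DMSO. GI50 was fitted with XLfit (4-parameter), AUC is the area under the dose-response curve, and minimum viability is the lowest fraction of DMSO viability across doses.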

A498 [2] = assay: as above
Procedure: as §1

ACHN [3] = assay: as above
Procedure: as §1

UO-31 [4] = assay: as above
Procedure: as §1

CAKI-1 [5] = assay: as above
Procedure: as §1

SN12C [6] = assay: as above
Procedure: as §1

769-P [7] = assay: as above
Procedure: as §1

786-O [8] = assay: as above
Procedure: as §1

TK-10 [9] = assay: AUC of dose-response viability curve, drug alone (arbitrary (AUC of normalised viability)); higher = less growth inhibition
Procedure: as §1

A498 [10] = assay: as above
Procedure: as §1

ACHN [11] = assay: as above
Procedure: as §1

UO-31 [12] = assay: as above
Procedure: as §1

CAKI-1 [13] = assay: as above
Procedure: as §1

SN12C [14] = assay: as above
Procedure: as §1

769-P [15] = assay: as above
Procedure: as §1

786-O [16] = assay: as above
Procedure: as §1

TK-10 [17] = assay: GI50, drug alone; higher = less potent
Procedure: as §1

A498 [18] = assay: GI50, drug alone; higher = less potent
Procedure: as §1

ACHN [19] = assay: GI50, drug alone; higher = less potent
Procedure: as §1

UO-31 [20] = assay: GI50, drug alone; higher = less potent
Procedure: as §1

CAKI-1 [21] = assay: GI50, drug alone; higher = less potent
Procedure: as §1

SN12C [22] = assay: GI50, drug alone; higher = less potent
Procedure: as §1

769-P [23] = assay: GI50, drug alone; higher = less potent
Procedure: as §1

786-O [24] = assay: GI50, drug alone; higher = less potent
Procedure: as §1

GI50, drug alone (ACHN [19])	GI50, drug alone (786-O [24])	SMILES	minimum viability across doses (TK-10 [1])	minimum viability across doses (A498 [2])	minimum viability across doses (ACHN [3])	minimum viability across doses (UO-31 [4])	minimum viability across doses (CAKI-1 [5])	minimum viability across doses (SN12C [6])	minimum viability across doses (769-P [7])	minimum viability across doses (786-O [8])	AUC of dose-response viability curve (TK-10 [9])	AUC of dose-response viability curve (A498 [10])	AUC of dose-response viability curve (ACHN [11])	AUC of dose-response viability curve (UO-31 [12])	AUC of dose-response viability curve (CAKI-1 [13])	AUC of dose-response viability curve (SN12C [14])	AUC of dose-response viability curve (769-P [15])	AUC of dose-response viability curve (786-O [16])	GI50, drug alone (TK-10 [17])	GI50, drug alone (A498 [18])	GI50, drug alone (UO-31 [20])	GI50, drug alone (CAKI-1 [21])	GI50, drug alone (SN12C [22])	GI50, drug alone (769-P [23])
8.82 µM	> 10 µM	CCOc1ccn(-c2ccc(F)cc2)c(=O)c1C(=O)Nc1ccc(Oc2ccnc(N)c2Cl)c(F)c1	0.665	0.87	0.443	0.722	0.47	0.75	0.817	0.503	2.99	3.52	3.06	4.18	2.99	3.14	3.17	2.3	> 10 µM	> 10 µM	> 10 µM	> 10 µM	> 10 µM	> 10 µM
> 10 µM	> 10 µM	N#Cc1c(O)c2c(-c3ccc(-c4ccccc4O)cc3)csc2[nH]c1=O	0.929	0.9	0.904	0.948	0.977	0.868	0.963	0.823	3.6	3.53	3.45	4.14	3.65	3.39	3.7	3.47	> 10 µM	> 10 µM	> 10 µM	> 10 µM	> 10 µM	> 10 µM
4.1 µM	> 10 µM	Cc1c(NC(=O)OC[C@@H]2COCCN2)cn2ncnc(Nc3ccc4c(cnn4Cc4cccc(F)c4)c3)c12.Cl	0.234	0.861	0.419	0.929	0.573	0.677	0.368	0.592	2.53	3.52	2.75	4.06	3.17	3.22	2.92	3.22	1.94 µM	> 10 µM	> 10 µM	> 10 µM	> 10 µM	5.19 µM
2.67 µM	> 10 µM	CN(C)Cc1cccc(N/C(=C2\C(=O)Nc3cc(C(=O)N(C)C)ccc32)c2ccccc2)c1	0.481	1.14	0.127	0.605	0.12	0.382	0.867	0.524	2.94	4.62	2.8	4.64	3.08	3.05	3.43	2.81	9.6 µM	> 10 µM	9.91 µM	4 µM	8.69 µM	> 10 µM
0.667 µM	0.879 µM	Cc1n[nH]c2ccc(-c3cncc(OC[C@@H](N)Cc4ccccc4)c3)cc12	0.141	0.0113	0.00528	0.00834	0.073	0.00861	0.0141	0.00649	2.54	2.46	2.28	2.35	2.6	2.55	2.74	2.19	1.39 µM	1.16 µM	0.887 µM	1.22 µM	1.43 µM	2.01 µM
0.327 µM	0.936 µM	Cc1ccc(C(=O)Nc2ccc(CN3CCN(C)CC3)c(C(F)(F)F)c2)cc1C#Cc1cnc2cccnn12	–	–	–	–	–	–	–	–	–	–	–	–	–	–	–	–	0.531 µM	2.09 µM	1.25 µM	0.486 µM	0.942 µM	2.21 µM
> 10 µM	> 10 µM	Nc1nccc(Oc2ccc(NC(=O)c3c[nH]cc(-c4ccc(F)cc4)c3=O)cc2F)c1Cl	0.689	0.973	0.649	0.00247	0.716	0.711	0.951	0.607	2.97	4.08	3.5	4.74	3.45	3.25	3.52	2.73	> 10 µM	> 10 µM	3.8 µM	> 10 µM	> 10 µM	> 10 µM
1.72 µM	> 10 µM	CN(C[C@@H]1COCCO1)S(=O)(=O)Nc1ccc2ccc3ncc(-c4cnn(C)c4)cc3c(=O)c2c1 [MK-2461]	0.649	0.968	0.217	1.03	0.0916	0.727	0.772	0.653	2.8	7.41	2.6	–	2.48	3.09	3.6	5.52	> 10 µM	> 10 µM	> 10 µM	1.12 µM	> 10 µM	> 10 µM
0.00967 µM	0.00639 µM	Nc1ccc(-c2ccc3ncc4ccc(=O)n(-c5cccc(C(F)(F)F)c5)c4c3c2)cn1 [Torin 2]	0.0151	0.0258	0.0442	0.0112	0.0161	0.0362	0.0587	0.00282	0.982	1.25	0.678	0.591	1.07	1.02	1.2	0.512	–	0.0354 µM	0.012 µM	0.0322 µM	0.0203 µM	0.0398 µM

More lines, now with the values behind:

SMILES	GI50, drug alone (ACHN [19])	GI50, drug alone (786-O [24])	minimum viability across doses (TK-10 [1])	minimum viability across doses (A498 [2])	minimum viability across doses (ACHN [3])	minimum viability across doses (UO-31 [4])	minimum viability across doses (CAKI-1 [5])	minimum viability across doses (SN12C [6])	minimum viability across doses (769-P [7])	minimum viability across doses (786-O [8])	AUC of dose-response viability curve (TK-10 [9])	AUC of dose-response viability curve (A498 [10])	AUC of dose-response viability curve (ACHN [11])	AUC of dose-response viability curve (UO-31 [12])	AUC of dose-response viability curve (CAKI-1 [13])	AUC of dose-response viability curve (SN12C [14])	AUC of dose-response viability curve (769-P [15])	AUC of dose-response viability curve (786-O [16])	GI50, drug alone (TK-10 [17])	GI50, drug alone (A498 [18])	GI50, drug alone (UO-31 [20])	GI50, drug alone (CAKI-1 [21])	GI50, drug alone (SN12C [22])	GI50, drug alone (769-P [23])
CCCCOc1c(C(=O)c2c(F)cc(C)cc2F)cnc2[nH]ncc12	0.267 µM	0.0969 µM	0.47	0.575	0.198	0.00742	0.745	0.564	0.562	0.0155	2.35	3.32	1.93	3.45	3.12	2.98	2.95	1.46	2.45 µM	> 10 µM	0.984 µM	> 10 µM	> 10 µM	> 10 µM
O=C1NC(=O)/C(=C/c2ccc(-c3ccc(F)cc3O)o2)S1	> 10 µM	> 10 µM	0.853	1.21	0.872	0.244	0.955	0.917	0.905	0.694	3.25	4.49	3.49	4.02	3.51	3.48	3.41	2.68	> 10 µM	> 10 µM	4.73 µM	> 10 µM	> 10 µM	> 10 µM
O=C1NC(=O)/C(=C/c2ccc3nccnc3c2)S1	> 10 µM	> 10 µM	0.802	0.869	0.837	0.902	0.648	0.805	0.891	0.651	3.3	3.39	3.28	4.01	3.43	3.19	3.39	3.04	> 10 µM	> 10 µM	> 10 µM	> 10 µM	> 10 µM	> 10 µM
Cc1cc2c(F)c(Oc3ncnn4cc(OC[C@@H](C)O)c(C)c34)ccc2[nH]1	> 10 µM	> 10 µM	0.733	1.09	0.628	0.457	0.427	0.909	0.901	0.668	3.23	4.21	3.04	4.46	3.4	3.28	3.39	3.09	> 10 µM	> 10 µM	9.55 µM	8.98 µM	> 10 µM	> 10 µM
Cc1cc2c(F)c(Oc3ncnn4cc(OC[C@@H](C)OC(=O)[C@H](C)N)c(C)c34)ccc2[nH]1	8.45 µM	8.62 µM	0.637	0.898	0.417	0.458	0.605	0.75	0.818	0.358	3.26	3.68	2.61	3.77	3.29	3.35	3.33	2.99	> 10 µM	> 10 µM	9.72 µM	> 10 µM	> 10 µM	> 10 µM
C[C@@H]1COC(Nc2ccc3ncnc(Nc4ccc(OCc5nccs5)c(Cl)c4)c3c2)=N1	1.88 µM	> 10 µM	0.369	1.1	0.433	0.919	0.478	0.76	0.431	0.5	2.46	4.91	2.8	4.74	3.13	3.25	2.72	2.6	2.21 µM	> 10 µM	> 10 µM	9.75 µM	> 10 µM	4.05 µM
O=C1NC(=O)/C(=C/c2ccc3c(c2)OC(F)(F)O3)S1	> 10 µM	> 10 µM	0.858	0.83	0.93	0.92	0.98	0.775	0.947	0.474	3.24	3.81	3.46	4.4	3.54	3.07	3.5	2.35	> 10 µM	> 10 µM	> 10 µM	> 10 µM	> 10 µM	> 10 µM
Cc1cnc(Nc2ccc(N3CCN(C)CC3)cc2)nc1Nc1cccc(S(=O)(=O)NC(C)(C)C)c1	0.394 µM and 0.247 µM	1.63 µM and 1.1 µM	0.00169 and 0.00288	0.19 and 0.161	0.00241 and 0.0043	0.0126 and 0.00902	–	–	0.0716 and 0.0287	0.011 and 0.00951	2.15 and 1.95	3.84 and 4.19	2.1 and 1.82	3.84 and 3.52	2.2 and 2.24	2.78 and 2.61	2.9 and 2.62	2.78 and 2.6	0.596 µM and 0.364 µM	8.98 µM and 9.2 µM	3.06 µM and 2.23 µM	0.523 µM and 0.493 µM	2.19 µM and 1.47 µM	3.64 µM and 1.86 µM
O=C(NC[C@H](O)CO)c1ccncc1Nc1ccc(I)cc1F	0.56 µM	0.247 µM	0.282	0.687	0.273	0.367	0.203	0.409	0.268	0.292	2.12	4.02	2.11	4.06	2.27	2.62	2.44	1.84	0.715 µM	> 10 µM	9.22 µM	0.654 µM	5.97 µM	1.14 µM
CCS(=O)(=O)N1CC(CC#N)(n2cc(-c3ncnc4[nH]ccc34)cn2)C1	> 10 µM	> 10 µM	0.817	1.07	0.758	1.11	0.926	0.885	0.953	0.619	3.09	4.43	3.17	4.72	3.58	3.36	3.62	3.07	> 10 µM	> 10 µM	> 10 µM	> 10 µM	> 10 µM	> 10 µM
NC1(Cc2ccc(Cl)cc2)CCN(c2ncnc3[nH]ccc23)CC1	5.91 µM	0.631 µM	0.284	0.905	0.287	0.00579	0.348	0.431	0.432	0.0631	3.01	4.01	3.38	4.18	3.21	3.08	3.31	2.17	4.56 µM	> 10 µM	3.8 µM	> 10 µM	7.35 µM	8.76 µM

From the supplement of paper PMC8149375
